Measured values as given in patent US20230065371A1, “PROCESS FOR MANUFACTURING SOLID NEUTRAL AMINO ACID SALTS OF POLYUNSATURATED FATTY ACIDS” (SILICYCLE INC., priority 2020, published 2023).

Experiment: Oxidative status / stability (PV, AV, Totox; CDR FoodLab Junior analyzer), storage with closed lids at room temperature
Assay type: physicochemical
Conditions: for TOTOX: Totox=2*PV+AV
Protocol: The final product in powder form is isolated by evaporating said first and second organic solvents and water from the reaction mixture to recover said basic amino acid salts of PUFAs. Preferably, said evaporation step is carried under reduced pressure between about 0° C.-70° C. depending on the properties of the equipment used. The oxidative status of the obtained final product described herein is quantified by peroxide value (PV), anisidine value (AV) and Totox value. PV is a measure of the level of the primary oxidation products (lipid hydroperoxides) in the product, which is specified in milliequivalents O2 per kg of sample, while the AV is an unspecific measure of saturated and unsaturated carbonyl compounds. Totox is calculated by the equation Totox=2*PV+AV.
The comparison of oxidative status of amino acid salts of omega-3, starting material in ester form and fish oil in free acid form are assessed by measuring the PV and AV, then all the samples are subjected to the same oxidizing condition over a certain period of time, followed by the measuring PV and AV of the samples. The oxidizing conditions are selected from one of them as below: 1) Storage in closed containers at atmospheric condition for 7 months; or 2) Storage in loose closed containers exposed to air at 40° C. for 1 month.
Food Lab Analyzer: Among several techniques known in the art for determining the oxidative levels of a sample. The CDR FoodLab® Junior analyzer is used herein for determining PV and AV. The procedures are as described below:
The solid product 0.5 g was dissolved in 2 ml of MeOH and HCl solution with the ratio of 1:10 (v/v). The mixture was stirred for 5 minutes, followed by the addition of 5 ml of water. The mixture was extracted with 3 ml of hexane containing 100 ppm butylhydroxytoluene (BHT). The organic layer was dried over MgSO4, filtrated and evaporated under reduced pressure at the temperature of 0-70° C. to get the fish oil in free acid form, which is evaluated with the CDR FoodLab® Junior analyzer to get anisidine and peroxide values using the CDR FoodLab® Junior analyzer.
The molar ratio of EPA, NaOH and glycine was 1:1:1. The mixture was stirred at atmospheric condition (i.e. atmospheric pressure and room temperature) for 5 minutes to obtain a suspension solution. 100 mL of acetonitrile was added to further precipitate the glycine salt. […] About 8 g of EPA-gly was stored in a 20 ml of clear vial with a diameter of 27 mm, which was placed with closed lids on the bench at room temperature for the stability examination for 60 days.

[1] = Table 1, time 60 d, closed lids, room temperature
[2] = salt as generated, after roughing pump for 1 day

| Structure (SMILES) | AV (Table 1, time 1 d) [A/g] | PV (Table 1, time 1 d) [meq O2/Kg] | AV [1] [A/g] | PV [1] [meq O2/Kg] | TOTOX [1] | PV [2] [meqO2/kg] | TOTOX (Table 1, time 1 d) | AV [2] [A/g] |
| --- | --- | --- | --- | --- | --- | --- | --- | --- |
| CC/C=C\C/C=C\C/C=C\C/C=C\C/C=C\C/C=C\CCC(=O)O.NCC(=O)O [DHA-gly, glycine salt of docosahexaenoic acid] | >100 | 9.71 | 7.4 | 1.92 | 11.24 | 9.71 |  |  |
| CC/C=C\C/C=C\C/C=C\C/C=C\C/C=C\CCCC(=O)O.NCC(=O)O [EPA-gly, glycine salt of eicosapentaenoic acid] | 14.6 | 29.9 | <0.5 | 1.19 | 2.38 | 29.9 | 74.4 | 14.6 |
